Measured values from patent publication US20090131356A1, “miR-15, miR-26, miR-31, miR-145, miR-147, miR-188, miR-215, miR-216, miR-331, mmu-miR-292-3P REGULATED GENES AND PATHWAYS AS TARGETS FOR THERAPEUTIC INTERVENTION” (ASURAGEN, INC., priority 2006, published 2009).

What was measured:
[1] = tested on: metastatic lung cancer cells; assay: Alamar Blue proliferation assay, average over metastatic luciferase-expressing lung cancer cell lines; type: cell-based, human; details: average of 5 metastatic luc lung cancer cell lines; vs negative control miRNA (=100%); 72 hours
Excerpt: The inventors assessed the therapeutic effect of hsa-miR-147 for lung cancer by using 12 individual lung cancer cell lines. To measure cellular proliferation of lung cancer cells, the following parental non-small cell lung cancer (NSCLC) cells were used: cells derived from lung adenocarcinoma (A549, H1299, H522, H838, Calu-3, HCC827, HCC2935), cells derived from lung squamous cell carcinoma (H520, H226), cells derived from lung adenosquamous cell carcinoma (H596), cells derived from lung bronchioalveolar carcinoma (H1650), and cells derived from lung large cell carcinoma (H460). In addition to these parental cell lines, highly metastatic NSCLC cells were used that stably express the firefly luciferase gene: A549-luc, H460-luc, HCC827-luc, H1650-luc, H441-luc. Unlike the parental cell lines, these metastatic cells readily migrate to distant sites of the test animal and form metastases upon subcutaneous, orthotopic, or intravenous injection. Synthetic hsa-miR-147 or negative control miRNA was delivered via lipid-based transfection into A549, H1299, H522, H838, Calu-3, HCC827, HCC2935, H520, H596, H1650, H460, A549-luc, H460-luc, HCC827-luc, H1650-luc, H441-luc cells and via electroporation into H226 cells. […]

[2] = tested on: human A549 lung cancer xenografts; assay: A549 lung cancer xenograft, cells electroporated with miRNA before implantation; type: in vivo, NOD/SCID mice; details: cells electroporated with 5 μg miRNA, injected subcutaneously; tumors measured days 14-20; vs negative control miRNA
Protocol: The inventors assessed the growth-inhibitory activity of hsa-miR-147 in a human lung cancer xenograft grown in immunodeficient mice. Hsa-miR-147 was delivered into A549 lung cancer cells via electroporation using the BioRad GenePulserXcell™ instrument with the following settings: 15×10^6 cells with 5 μg miRNA in 200 μl OptiMEM, square wave pulse at 150 V for 10 ms. A total of 30×10^6 A549 cells was used to 5×10^6 electroporated cells were mixed with matrigel in a 1:1 ratio and injected subcutaneously into the flank of NOD/SCID mice. As a negative control, A549 cells were electroporated with negative control miRNA (pre-miR-NC#2, Ambion) as describe above. NC miRNA-treated cells were injected into the opposite flank of the same animal to control for animal-to-animal variability. A total of 30×10^6 A549 cells per hsa-miR-147 and NC was used to accommodate 5 injections into 5 animals. Size measurements of tumors started 14 days after injection once tumors have reached a measurable size. Length and width of tumors were determined every day for the following 6 days. Tumor volumes were calculated using the formula V=length×width^2/2 in which the length is greater than the width. Tumor volumes derived from NC-treated cells and hsa-miR-147-treated cells were averaged and plotted over time (FIG. 5). Standard deviations are shown in the graph. […]

H226 lung cancer cells = assay: Long-term growth curve with repeated electroporation, H226; type: cell-based, human; details: 1.6 μM electroporated, repeated on days 6, 17 and 25; day 31; relative to control cells (100%)
Protocol: To evaluate the therapeutic activity of hsa-miR-147 over an extended period of time, the inventors conducted growth curve experiments in the presence of miRNA for up to 31 days in H226 lung cancer cells. Since in vitro transfections of naked interfering RNAs, such as synthetic miRNA, are transient by nature and compromised by the dilution of the oligo during ongoing cell divisions, miRNA was administered at multiple time points (Bartlett et al., 2006; Bartlett et al., 2007). To accommodate miRNA delivery into a large quantity of cells, hsa-miR-147 or negative control miRNA were delivered by the electroporation method. Briefly, 1×10^6 H226 were electroporated in triplicate with 1.6 μM hsa-miR-147 or negative control using the BioRad Gene Pulser Xcell™ instrument (BioRad Laboratories Inc., Hercules, Calif., USA), seeded and propagated in regular growth medium. When the control cells reached confluence (days 6, 17 and 25), cells were harvested, counted and electroporated again with the respective miRNAs. […] The population doubling was calculated from these electroporation events using the formula PD=ln(Nf/N0)/ln2 and adjusting for the fact that approximately 72% of newly seeded cells adhere to the plate. […]

## hsa-miR-147: Synthetic pre-miR-147 (Ambion AM17100; Dharmacon in vivo); mature sequence GUGUGUGGAAAUGCUUCUGC, MIMAT0000251, SEQ ID NO:114 (synthetic pre-miR (Ambion/Dharmacon), chemistry not given here; listed as Homo sapiens)
[1]
  inhibition of cell growth, on average: 42%
[2]
  tumor growth of A549 xenograft: inhibited tumor growth in vivo
H226 lung cancer cells
  inhibition of H226 cell growth: 90.9%
  remaining cells: 9.1%
